Values after ≈ are worked out from the molar mass of the structure shown. Values belong to the compound of their own block, whether it stands above or below them.
How the values were obtained:
[1] = Volume of distribution in mouse at 3 mg/kg, iv; assay type: ADME, organism-based; parameters: dose 3 mg/kg, route intravenous; conditions: in vivo
Mus musculus = assay: Inhibition of estradiol-induced uterine edema in mouse at 10 mg/kg, po; conditions: read-out: Inhibition
[2] = AUC in mouse at 10 mg/kg, po; assay type: ADME, organism-based; parameters: dose 10 mg/kg, route oral; conditions: plasma
[3] = Clearance in mouse at 3 mg/kg, iv; assay type: ADME, organism-based; parameters: dose 3 mg/kg, route intravenous; conditions: in vivo
[4] = Half life in mouse at 3 mg/kg, iv; assay type: ADME, organism-based; parameters: dose 3 mg/kg, route intravenous; conditions: in vivo
[5] = Oral bioavailability in mouse at 10 mg/kg; assay type: ADME, organism-based; conditions: in vivo
[6] = Aqueous solubility at pH 7.2; assay type: physicochemical; conditions: buffer
[7] = molecular target: Mast/stem cell growth factor receptor Kit (Homo sapiens, UniProt P10721); assay: Inhibition of cKit by HTRF assay
Mast/stem cell growth factor receptor Kit, sequence (P10721 whole entry): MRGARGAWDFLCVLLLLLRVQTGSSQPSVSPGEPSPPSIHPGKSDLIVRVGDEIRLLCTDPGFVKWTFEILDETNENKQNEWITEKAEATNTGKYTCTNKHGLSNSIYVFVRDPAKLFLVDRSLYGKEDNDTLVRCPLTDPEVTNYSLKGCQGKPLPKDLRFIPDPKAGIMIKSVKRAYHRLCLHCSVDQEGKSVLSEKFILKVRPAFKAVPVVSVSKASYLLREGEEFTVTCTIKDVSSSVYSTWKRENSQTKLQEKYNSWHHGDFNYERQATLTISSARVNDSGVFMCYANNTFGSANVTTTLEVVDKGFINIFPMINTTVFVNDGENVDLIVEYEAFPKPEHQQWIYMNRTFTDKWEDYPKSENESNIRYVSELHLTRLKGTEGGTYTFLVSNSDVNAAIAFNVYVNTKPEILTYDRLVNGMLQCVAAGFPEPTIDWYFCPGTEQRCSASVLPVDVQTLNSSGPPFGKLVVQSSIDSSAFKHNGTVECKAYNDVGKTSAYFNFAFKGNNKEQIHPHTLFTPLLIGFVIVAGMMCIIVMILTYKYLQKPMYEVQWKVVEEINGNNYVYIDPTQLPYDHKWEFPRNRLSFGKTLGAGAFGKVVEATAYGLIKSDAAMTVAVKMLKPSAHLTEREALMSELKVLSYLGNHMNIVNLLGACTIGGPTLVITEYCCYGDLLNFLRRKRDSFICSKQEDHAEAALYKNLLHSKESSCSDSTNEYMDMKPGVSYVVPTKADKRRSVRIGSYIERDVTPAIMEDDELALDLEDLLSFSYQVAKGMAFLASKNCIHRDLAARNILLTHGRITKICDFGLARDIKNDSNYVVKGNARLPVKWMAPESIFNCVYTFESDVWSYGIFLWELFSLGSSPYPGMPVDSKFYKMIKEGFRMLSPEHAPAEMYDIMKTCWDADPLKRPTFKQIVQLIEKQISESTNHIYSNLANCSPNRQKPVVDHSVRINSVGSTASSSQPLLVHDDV

[8] = molecular target: Tyrosine-protein kinase Fyn (Homo sapiens, UniProt P06241); assay: Inhibition of FYN by HTRF assay
Tyrosine-protein kinase Fyn, sequence (P06241 whole entry): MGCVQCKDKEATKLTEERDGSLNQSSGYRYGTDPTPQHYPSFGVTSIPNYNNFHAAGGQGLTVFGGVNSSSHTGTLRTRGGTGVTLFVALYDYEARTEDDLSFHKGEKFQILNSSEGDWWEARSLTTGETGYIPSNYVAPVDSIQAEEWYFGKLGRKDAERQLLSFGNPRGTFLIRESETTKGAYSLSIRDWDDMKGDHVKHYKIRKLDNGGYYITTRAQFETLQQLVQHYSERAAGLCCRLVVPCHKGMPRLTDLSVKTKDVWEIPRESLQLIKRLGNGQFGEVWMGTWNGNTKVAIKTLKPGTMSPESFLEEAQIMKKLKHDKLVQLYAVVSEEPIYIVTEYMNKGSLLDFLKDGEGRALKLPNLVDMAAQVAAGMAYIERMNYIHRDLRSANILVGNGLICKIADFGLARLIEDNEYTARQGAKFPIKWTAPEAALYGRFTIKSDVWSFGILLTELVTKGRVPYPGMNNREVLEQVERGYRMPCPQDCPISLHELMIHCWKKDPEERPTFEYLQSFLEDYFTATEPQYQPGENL

[9] = molecular target: T1, Receptor-type tyrosine-protein kinase FLT3 (Homo sapiens, UniProt P36888); assay: Inhibition of FLT3 by HTRF assay
T1 sequence (P36888 whole entry): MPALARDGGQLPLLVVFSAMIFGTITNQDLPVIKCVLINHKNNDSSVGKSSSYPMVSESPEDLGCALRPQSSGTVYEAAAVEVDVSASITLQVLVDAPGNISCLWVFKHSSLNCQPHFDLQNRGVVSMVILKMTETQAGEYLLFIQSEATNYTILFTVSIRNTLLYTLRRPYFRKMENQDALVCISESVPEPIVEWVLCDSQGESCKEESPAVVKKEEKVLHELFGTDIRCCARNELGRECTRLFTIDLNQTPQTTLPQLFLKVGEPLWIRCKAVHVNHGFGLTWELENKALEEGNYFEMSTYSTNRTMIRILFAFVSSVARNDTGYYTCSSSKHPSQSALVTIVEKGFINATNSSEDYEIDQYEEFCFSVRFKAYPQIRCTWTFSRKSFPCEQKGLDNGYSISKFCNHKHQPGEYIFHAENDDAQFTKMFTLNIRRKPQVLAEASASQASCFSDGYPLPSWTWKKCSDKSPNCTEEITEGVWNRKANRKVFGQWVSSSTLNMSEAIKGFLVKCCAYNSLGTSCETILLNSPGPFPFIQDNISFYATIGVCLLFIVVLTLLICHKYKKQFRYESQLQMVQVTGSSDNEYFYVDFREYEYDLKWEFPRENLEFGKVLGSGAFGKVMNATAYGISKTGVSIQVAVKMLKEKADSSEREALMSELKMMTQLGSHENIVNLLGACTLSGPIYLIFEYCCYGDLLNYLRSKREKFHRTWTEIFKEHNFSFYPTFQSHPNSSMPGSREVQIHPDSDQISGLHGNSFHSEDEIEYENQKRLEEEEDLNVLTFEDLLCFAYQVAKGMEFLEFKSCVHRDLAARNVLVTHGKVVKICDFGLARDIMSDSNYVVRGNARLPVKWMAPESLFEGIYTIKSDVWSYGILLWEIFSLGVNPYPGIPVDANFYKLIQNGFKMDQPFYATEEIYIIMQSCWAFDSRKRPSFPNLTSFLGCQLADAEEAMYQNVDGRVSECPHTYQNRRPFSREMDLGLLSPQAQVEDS

[10] = molecular target: Vascular endothelial growth factor receptor 1 (Homo sapiens, UniProt P17948); assay: Inhibition of FLT1 by HTRF assay
[11] = molecular target: Macrophage colony-stimulating factor 1 receptor (Homo sapiens, UniProt P07333); assay: Inhibition of CSF1R by HTRF assay
Macrophage colony-stimulating factor 1 receptor, sequence (P07333 whole entry): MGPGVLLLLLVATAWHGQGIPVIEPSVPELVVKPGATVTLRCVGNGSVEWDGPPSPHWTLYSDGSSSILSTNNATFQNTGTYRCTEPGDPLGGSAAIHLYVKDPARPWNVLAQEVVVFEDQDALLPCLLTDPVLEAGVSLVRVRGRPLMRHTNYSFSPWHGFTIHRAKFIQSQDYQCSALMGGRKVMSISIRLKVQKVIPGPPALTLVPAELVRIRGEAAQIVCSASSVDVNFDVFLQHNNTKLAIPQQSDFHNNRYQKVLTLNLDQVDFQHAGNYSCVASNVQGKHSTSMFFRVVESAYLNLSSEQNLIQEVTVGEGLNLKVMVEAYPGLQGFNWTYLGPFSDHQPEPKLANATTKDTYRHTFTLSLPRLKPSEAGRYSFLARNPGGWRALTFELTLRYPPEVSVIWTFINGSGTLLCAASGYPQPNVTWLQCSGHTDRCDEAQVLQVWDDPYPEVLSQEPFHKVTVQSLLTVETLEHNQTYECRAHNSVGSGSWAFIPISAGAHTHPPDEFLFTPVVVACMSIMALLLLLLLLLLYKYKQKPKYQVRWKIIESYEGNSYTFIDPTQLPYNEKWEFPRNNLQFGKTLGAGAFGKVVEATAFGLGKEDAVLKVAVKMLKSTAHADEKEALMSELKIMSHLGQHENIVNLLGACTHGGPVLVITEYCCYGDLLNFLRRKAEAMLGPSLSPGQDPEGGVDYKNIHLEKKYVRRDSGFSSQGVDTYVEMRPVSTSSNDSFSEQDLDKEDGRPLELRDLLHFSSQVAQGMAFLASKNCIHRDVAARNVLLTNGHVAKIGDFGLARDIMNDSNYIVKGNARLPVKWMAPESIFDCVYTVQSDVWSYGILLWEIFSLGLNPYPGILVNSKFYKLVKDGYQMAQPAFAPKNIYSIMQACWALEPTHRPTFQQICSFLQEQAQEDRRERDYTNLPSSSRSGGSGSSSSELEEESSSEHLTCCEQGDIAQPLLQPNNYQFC

[12] = molecular target: T2, Vascular endothelial growth factor receptor 2 (Homo sapiens, UniProt P35968)
T2 sequence (P35968 whole entry): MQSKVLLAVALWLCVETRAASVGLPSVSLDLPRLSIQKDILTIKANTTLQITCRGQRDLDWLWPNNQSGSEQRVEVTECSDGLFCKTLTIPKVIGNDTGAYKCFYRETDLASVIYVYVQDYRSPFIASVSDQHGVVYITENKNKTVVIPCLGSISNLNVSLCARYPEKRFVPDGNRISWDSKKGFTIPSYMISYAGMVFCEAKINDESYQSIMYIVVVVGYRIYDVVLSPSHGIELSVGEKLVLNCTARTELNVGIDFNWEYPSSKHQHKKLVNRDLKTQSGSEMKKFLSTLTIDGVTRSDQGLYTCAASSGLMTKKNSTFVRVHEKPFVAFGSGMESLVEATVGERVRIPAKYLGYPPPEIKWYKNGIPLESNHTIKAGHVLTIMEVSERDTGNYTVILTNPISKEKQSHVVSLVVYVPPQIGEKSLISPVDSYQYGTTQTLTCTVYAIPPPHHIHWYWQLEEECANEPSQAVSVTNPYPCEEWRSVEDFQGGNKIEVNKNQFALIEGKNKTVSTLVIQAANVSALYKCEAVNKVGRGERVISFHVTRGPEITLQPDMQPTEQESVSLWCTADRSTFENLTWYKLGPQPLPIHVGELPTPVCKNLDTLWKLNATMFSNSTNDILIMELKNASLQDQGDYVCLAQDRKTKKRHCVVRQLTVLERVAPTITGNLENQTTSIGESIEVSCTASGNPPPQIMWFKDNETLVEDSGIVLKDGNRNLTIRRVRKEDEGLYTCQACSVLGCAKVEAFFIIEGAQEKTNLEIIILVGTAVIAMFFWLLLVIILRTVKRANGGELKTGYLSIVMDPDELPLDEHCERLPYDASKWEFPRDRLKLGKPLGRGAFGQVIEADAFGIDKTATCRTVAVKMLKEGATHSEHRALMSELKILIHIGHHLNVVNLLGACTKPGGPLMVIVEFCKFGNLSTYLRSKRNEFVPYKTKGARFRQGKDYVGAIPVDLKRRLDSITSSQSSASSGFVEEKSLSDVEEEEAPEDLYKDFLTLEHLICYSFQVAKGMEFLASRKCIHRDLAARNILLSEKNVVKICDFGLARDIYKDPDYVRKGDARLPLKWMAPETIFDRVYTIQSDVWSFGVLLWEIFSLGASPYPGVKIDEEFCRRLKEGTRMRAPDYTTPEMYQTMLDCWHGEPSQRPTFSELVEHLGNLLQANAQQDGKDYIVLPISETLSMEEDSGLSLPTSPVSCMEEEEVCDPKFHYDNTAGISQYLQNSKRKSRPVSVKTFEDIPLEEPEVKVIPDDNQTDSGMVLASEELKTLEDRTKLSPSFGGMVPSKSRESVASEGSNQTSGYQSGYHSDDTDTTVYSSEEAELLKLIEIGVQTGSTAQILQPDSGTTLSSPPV
Description: Inhibition of KDR by HTRF assay

[13] = molecular target: T2, Vascular endothelial growth factor receptor 2; remark: listed apart in the source
Description: Inhibition of VEGF-induced human KDR phosphorylation in mouse 3T3 cells

Vd [1]: 1.5 L/kg | AUC [2]: 15.7 µM·h | clearance [3]: 17.3 mL/min/kg | half-life [4]: 60 min | bioavailability [5]: 62%
Structure (SMILES): Cc1ccc(F)c(NC(=O)Nc2ccc(-c3ccnc4[nH]nc(N)c34)cc2)c1
inhibition in vivo at 10 mg/kg (Mus musculus): 66%

Structure (SMILES): Cc1cc(C)cc(NC(=O)Nc2ccc(-c3ccnc4[nH]nc(N)c34)cc2)c1
inhibition in vivo at 10 mg/kg (Mus musculus): 77%

solubility [6]: 1.6 µM (≈ 0.606 µg/mL)
Structure (SMILES): Nc1n[nH]c2nccc(-c3ccc(NC(=O)Nc4cccc(Cl)c4)cc3)c12
inhibition in vivo at 10 mg/kg (Mus musculus): 23%

Structure (SMILES): Nc1n[nH]c2nccc(-c3ccc(NC(=O)Nc4cccc(C(F)(F)F)c4)cc3)c12
IC50 [7]: 7 nM | IC50 [8]: 11800 nM | IC50 [9]: 2 nM | IC50 [10]: 5 nM | IC50 [11]: 3 nM

Structure (SMILES): Cc1ccc(NC(=O)Nc2ccc(-c3ccnc4[nH]nc(N)c34)cc2)cc1
inhibition in vivo at 10 mg/kg (Mus musculus): < 5%

Structure (SMILES): Nc1n[nH]c2nccc(-c3ccc(NC(=O)Nc4ccc(F)c(Cl)c4)cc3)c12
inhibition in vivo at 10 mg/kg (Mus musculus): 55%

Structure (SMILES): Nc1n[nH]c2cncc(-c3ccc(NC(=O)Nc4cc(C(F)(F)F)ccc4F)cc3)c12
inhibition in vivo at 10 mg/kg (Mus musculus): 35%

Structure (SMILES): Cn1nc(N)c2c(-c3ccc(NC(=O)Nc4ccc(F)c(C(F)(F)F)c4)cc3)cncc21
inhibition in vivo at 10 mg/kg (Mus musculus): 59%

IC50 [12]: 35 nM | IC50 [13]: 2.2 nM
Structure (SMILES): Cc1ccccc1NC(=O)Nc1ccc(-c2ccnc3[nH]nc(N)c23)cc1
inhibition in vivo at 10 mg/kg (Mus musculus): < 5%

solubility [6]: 5.8 µM (≈ 2.18 µg/mL)
Structure (SMILES): Cc1ccc(F)c(NC(=O)Nc2ccc(-c3cncc4[nH]nc(N)c34)cc2)c1
inhibition in vivo at 10 mg/kg (Mus musculus): 98%

Vd [1]: 1.71 L/kg | AUC [2]: 0.89 µM·h | clearance [3]: 43.7 mL/min/kg | half-life [4]: 27 min | bioavailability [5]: 9%
Structure (SMILES): Cc1cc(C)cc(NC(=O)Nc2ccc(-c3nccc4[nH]nc(N)c34)cc2)c1
inhibition in vivo at 10 mg/kg (Mus musculus): < 5%

Structure (SMILES): Cc1cccc(NC(=O)Nc2ccc(-c3cncc4[nH]nc(N)c34)cc2)c1
inhibition in vivo at 10 mg/kg (Mus musculus): 50%

Structure (SMILES): Cc1cc(NC(=O)Nc2ccc(-c3ccnc4[nH]nc(N)c34)cc2)ccc1F
inhibition in vivo at 10 mg/kg (Mus musculus): 108%

IC50 [12]: 7.7 nM | Vd [1]: 1.48 L/kg | AUC [2]: 30.2 µM·h | clearance [3]: 11.5 mL/min/kg | half-life [4]: 90 min | bioavailability [5]: 81% | IC50 [13]: 3 nM
Structure (SMILES): Cc1ccc(F)c(NC(=O)Nc2ccc(-c3cncc4c3c(N)nn4C)cc2)c1
inhibition in vivo at 10 mg/kg (Mus musculus): 72%

Structure (SMILES): Nc1n[nH]c2nccc(-c3ccc(NC(=O)Nc4ccccc4)cc3)c12
inhibition in vivo at 10 mg/kg (Mus musculus): 39%

solubility [6]: 9.5 µM (≈ 3.58 µg/mL)
Structure (SMILES): Cc1ccc(F)c(NC(=O)Nc2ccc(-c3nccc4[nH]nc(N)c34)cc2)c1
inhibition in vivo at 10 mg/kg (Mus musculus): < 5%

Structure (SMILES): Nc1n[nH]c2cncc(-c3ccc(NC(=O)Nc4cccc(Cl)c4)cc3)c12
inhibition in vivo at 10 mg/kg (Mus musculus): < 5%

Structure (SMILES): Cn1nc(N)c2c(-c3ccc(NC(=O)Nc4cccc(Cl)c4)cc3)cncc21
inhibition in vivo at 10 mg/kg (Mus musculus): 52%

Vd [1]: 0.66 L/kg | AUC [2]: 25 µM·h | clearance [3]: 12.7 mL/min/kg | half-life [4]: 36 min | bioavailability [5]: 71%
Structure (SMILES): Cc1cccc(NC(=O)Nc2ccc(-c3cncc4c3c(N)nn4C)cc2)c1
inhibition in vivo at 10 mg/kg (Mus musculus): 79%

Structure (SMILES): Nc1n[nH]c2ccnc(-c3ccc(NC(=O)Nc4cccc(C(F)(F)F)c4)cc3)c12
inhibition in vivo at 10 mg/kg (Mus musculus): < 5%

Structure (SMILES): Cc1cc(NC(=O)Nc2ccc(-c3cncc4[nH]nc(N)c34)cc2)ccc1F
inhibition in vivo at 10 mg/kg (Mus musculus): 19%

Structure (SMILES): Cc1cc(NC(=O)Nc2ccc(-c3nccc4[nH]nc(N)c34)cc2)ccc1F
inhibition in vivo at 10 mg/kg (Mus musculus): < 5%

solubility [6]: 0.07 µM (≈ 0.0263 µg/mL)
Structure (SMILES): Cc1ccc(F)c(NC(=O)Nc2ccc(-c3cccc4[nH]nc(N)c34)cc2)c1 [LINIFANIB]

Source: ChEMBL document CHEMBL1142252, “Identification of aminopyrazolopyridine ureas as potent VEGFR/PDGFR multitargeted kinase inhibitors” (Bioorg Med Chem Lett, 2008)
